Test results published in ChEMBL document CHEMBL3886247, “Aurora and FLT3 kinases modulators” (2015).

Assays:
Aurora kinase B = Aurora kinase B (Homo sapiens, UniProt Q96GD4); test: Inhibition Assay: Kinase assays were performed at Reaction Biology Corp., Malvern, Pa., USA, using the following general procedure:1) Prepare indicated substrate in freshly prepared Base Reaction Buffer (20 mM Hepes pH 7.5, 10 mM MgCl2, 1 mM EGTA, 0.02% Brij35, 0.02 mg/ml BSA, 0.1 mM Na3VO4, 2 mM DTT, 1% DMSO).2) Deliver cofactors (1.5 mM CaCl2, 16 ug/mL Calmodulin, 2 mM MnCl2) to the substrate solution above.3) Deliver indicated kinase into the substrate solution and gently mix4) Deliver varying concentrations of test compound in DMSO into the kinase reaction mixture.5) Deliver 33P-ATP (specific activity 0.01 uCi/uL final) into the reaction mixture to initiate the reaction.6) Incubate kinase reaction for 120 min at room temperature.7) Reactions are spotted onto P81 ion exchange filter paper (Whatman #3698-915)8) Unbound phosphate is removed by washing filters extensively in 0.75% phosphoric acid.9) 33P signal was determined using Typhoon phosphorimagers (GE Healthcare).
[1] = target: T1, Receptor-type tyrosine-protein kinase FLT3 (Homo sapiens, UniProt P36888); test: Inhibition Assay: Kinase assays were performed at Reaction Biology Corp., Malvern, Pa., USA, using the following general procedure:1) Prepare indicated substrate in freshly prepared Base Reaction Buffer (20 mM Hepes pH 7.5, 10 mM MgCl2, 1 mM EGTA, 0.02% Brij35, 0.02 mg/ml BSA, 0.1 mM Na3VO4, 2 mM DTT, 1% DMSO).2) Deliver cofactors (1.5 mM CaCl2, 16 ug/mL Calmodulin, 2 mM MnCl2) to the substrate …
T1 sequence (P36888 whole entry): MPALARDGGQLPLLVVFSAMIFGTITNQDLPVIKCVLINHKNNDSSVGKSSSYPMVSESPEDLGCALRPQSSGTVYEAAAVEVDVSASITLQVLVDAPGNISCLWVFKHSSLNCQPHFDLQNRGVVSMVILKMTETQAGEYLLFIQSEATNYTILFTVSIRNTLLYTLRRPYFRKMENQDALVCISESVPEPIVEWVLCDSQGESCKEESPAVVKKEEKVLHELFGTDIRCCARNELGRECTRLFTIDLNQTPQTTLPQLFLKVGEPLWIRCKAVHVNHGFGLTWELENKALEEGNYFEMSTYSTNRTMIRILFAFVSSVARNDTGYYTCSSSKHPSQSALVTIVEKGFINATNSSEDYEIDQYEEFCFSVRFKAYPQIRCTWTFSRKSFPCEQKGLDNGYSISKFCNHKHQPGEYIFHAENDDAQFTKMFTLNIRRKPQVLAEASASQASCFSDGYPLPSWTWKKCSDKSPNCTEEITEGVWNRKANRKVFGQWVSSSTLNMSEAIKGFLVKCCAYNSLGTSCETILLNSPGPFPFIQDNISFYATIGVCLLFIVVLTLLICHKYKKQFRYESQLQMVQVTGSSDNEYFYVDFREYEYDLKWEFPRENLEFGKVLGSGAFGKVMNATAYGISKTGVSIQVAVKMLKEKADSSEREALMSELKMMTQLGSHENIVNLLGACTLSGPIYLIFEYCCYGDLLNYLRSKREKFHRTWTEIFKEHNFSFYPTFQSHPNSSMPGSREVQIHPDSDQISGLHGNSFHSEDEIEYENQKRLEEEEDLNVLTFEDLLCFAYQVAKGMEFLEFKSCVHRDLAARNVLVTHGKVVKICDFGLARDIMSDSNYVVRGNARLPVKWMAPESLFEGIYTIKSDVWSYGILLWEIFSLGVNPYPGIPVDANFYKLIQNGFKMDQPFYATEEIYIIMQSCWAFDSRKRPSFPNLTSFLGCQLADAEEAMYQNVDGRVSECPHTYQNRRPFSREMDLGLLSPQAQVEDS

Sequence of Aurora kinase B (Q96GD4 whole entry): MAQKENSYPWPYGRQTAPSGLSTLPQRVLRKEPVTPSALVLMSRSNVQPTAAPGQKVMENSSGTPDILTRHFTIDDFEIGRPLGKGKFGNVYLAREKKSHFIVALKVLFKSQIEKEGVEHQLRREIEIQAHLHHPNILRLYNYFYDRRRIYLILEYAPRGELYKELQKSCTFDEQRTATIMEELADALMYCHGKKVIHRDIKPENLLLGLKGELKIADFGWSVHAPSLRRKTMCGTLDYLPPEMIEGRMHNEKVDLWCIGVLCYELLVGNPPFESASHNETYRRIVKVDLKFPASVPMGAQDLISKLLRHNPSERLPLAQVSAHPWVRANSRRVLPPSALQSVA

CCc1ccc(-c2nc(C(N)=O)c(-c3ccc(N4CCNC(C)(C)C4)cc3)o2)c2cc[nH]c12
IC50 (Aurora kinase B): 12 nM | IC50 [1]: 0.67 nM
